Assay results reported in patent US20230373989A1, “N-PHENYLAMINOCARBONYL PYRIDINO-, PYRIMIDINO AND BENZO-TROPANES AS MODULATORS OF GPR65” (PATHIOS THERAPEUTICS LIMITED, priority 2020, published 2023).

The compounds below were run against T1, human recombinant GPR65 (Homo sapiens, UniProt Q8IYL9) (assay: Human GPR65 cAMP HTRF antagonist assay). Conditions: not given.
T1 construct: host or cells: 1321N1 human astrocytoma cells (1321N1-hrGPR65)
T1 sequence (Q8IYL9 whole entry): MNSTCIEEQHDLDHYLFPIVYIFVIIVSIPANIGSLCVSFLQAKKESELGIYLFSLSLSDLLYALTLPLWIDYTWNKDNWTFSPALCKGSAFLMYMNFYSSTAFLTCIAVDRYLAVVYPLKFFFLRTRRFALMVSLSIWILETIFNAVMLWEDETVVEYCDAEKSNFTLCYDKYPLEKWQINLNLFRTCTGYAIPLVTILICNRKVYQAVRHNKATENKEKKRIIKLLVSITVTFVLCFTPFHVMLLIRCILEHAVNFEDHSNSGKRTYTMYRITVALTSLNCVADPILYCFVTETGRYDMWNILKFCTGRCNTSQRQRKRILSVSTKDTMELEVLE
Type: cell-based
Outline: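 1321N1 astrocytoma cells stably expressing GPR65 were preincubated with compound for 30 min at room temperature in KRH pH 7.6 with 1 mM IBMX and 200 μM EDTA. They were then stimulated at assay pH 7.2 for 30 min, with controls at pH 7.9. cAMP was read by HTRF (665/620 nm), normalised to controls and fitted by 4-parameter logistic to give IC50.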
`O=C(Nc1cc(Br)c(C(F)(F)F)cc1F)N1[C@H]2CC[C@@H]1c1c[nH]c(=O)cc1C2` [Compound 144, (6S,9R)-N-(5-Bromo-2-fluoro-4-(trifluoromethyl)phenyl)-3-oxo-3,5,6,7,8,9-hexahydro-2H-6,9-epiminocyclohepta[c]pyridine-10-carboxamide] showed an IC50 of under 500 nM.
`O=C(Nc1ccc(Cl)c(Br)c1)N1[C@H]2CC[C@@H]1c1c[nH]c(=O)cc1C2` [Compound 145, (6S,9R)-N-(3-Bromo-4-chlorophenyl)-3-oxo-3,5,6,7,8,9-hexahydro-2H-6.9-epiminocyclohepta[c]pyridine-10-carboxamide] showed an IC50 of under 500 nM.
For `O=C(Nc1cc(Cl)c(C(F)(F)F)cc1F)N1[C@H]2CC[C@@H]1c1c[nH]c(=O)c(F)c1C2` [Compound 146, (6S,9R)-N-(5-Chloro-2-fluoro-4-(trifluoromethyl)phenyl)-4-fluoro-3-oxo-3,5,6,7,8,9-hexahydro-2H-6,9-epiminocyclohepta[c]pyridine-10-carboxamide], the IC50 was under 500 nM.
`O=C(Nc1cc(Cl)c(C(F)(F)F)cc1F)N1[C@@H]2CC[C@H]1c1c[nH]c(=O)c(F)c1C2` [Compound 147, (6R,9S)-N-(5-Chloro-2-fluoro-4-(trifluoromethyl)phenyl)-4-fluoro-3-oxo-3,5,6,7,8,9-hexahydro-2H-6,9-epiminocyclohepta[c]pyridine-10-carboxamide] showed an IC50 of under 500 nM.
`O=C(Nc1cc(Cl)c(Cl)cc1O)N1[C@H]2CC[C@@H]1c1ccnc(F)c1C2` [Compound 149, (5R,8S)—N-(4,5-Dichloro-2-hydroxyphenyl)-1-fluoro-6,7,8,9-tetrahydro-5H-5,8-epiminocyclohepta[c]pyridine-10-carboxamide] gave an IC50 of under 500 nM.
In the case of `N#Cc1cc(NC(=O)N2[C@H]3CC[C@@H]2c2ccnc(F)c2C3)ccc1C(F)(F)F` [Compound 151, (5R,8S)-N-(3-cyano-4-(trifluoromethyl)phenyl)-1-fluoro-6,7,8,9-tetrahydro-5H-5,8-epiminocyclohepta[c]pyridine-10-carboxamide], the IC50 is reported as under 500 nM.
`O=C(Nc1ccc(C(F)(F)F)c(Br)c1)N1[C@H]2CC[C@@H]1c1ccnc(F)c1C2` [Compound 153, (5R,8S)-N-(3-Bromo-4-(trifluoromethyl)phenyl)-1-fluoro-6,7,8,9-tetrahydro-5H-5,8-epiminocyclohepta[c]pyridine-10-carboxamide] was tested, and the IC50 was under 500 nM.
`C=CC(=O)Nc1ccc(NC(=O)N2[C@H]3CC[C@@H]2c2ccnc(F)c2C3)cc1Cl` [Compound 179, (5R,8S)-N-(4-Acrylamido-3-chlorophenyl)-1-fluoro-6,7,8,9-tetrahydro-5H-5,8-epiminocyclohepta[c]pyridine-10-carboxamide] was tested, and the IC50 was 500 to 5000 nM.
In the case of `O=C(Nc1cc(Br)c(C(F)(F)F)cc1F)N1[C@H]2CC[C@@H]1c1ccnc(F)c1C2` [Compound 180, (5R,8S)-N-(5-Bromo-2-fluoro-4-(trifluoromethyl)phenyl)-1-fluoro-6,7,8,9-tetrahydro-5H-5,8-epiminocyclohepta[c]pyridine-10-carboxamide], the IC50 is reported as under 500 nM.
In the case of `O=C(Nc1cccc(-c2ccccc2)c1)N1[C@H]2CC[C@@H]1c1ccnc(F)c1C2` [Compound 184, (5R,8S)-N-([1,1′-Biphenyl]-3-yl)-1-fluoro-6,7,8,9-tetrahydro-5H-5,8-epiminocyclohepta[c]pyridine-10-carboxamide], the IC50 is reported as under 500 nM.
For `O=C(Nc1ccc(Oc2ccccc2)cc1)N1[C@H]2CC[C@@H]1c1ccnc(F)c1C2` [Compound 185, (5R,8S)-1-Fluoro-N-(4-phenoxyphenyl)-6,7,8,9-tetrahydro-5H-5,8-epiminocyclohepta[c]pyridine-10-carboxamide], the IC50 was under 500 nM.
Work on `Cc1ncoc1-c1ccc(NC(=O)N2[C@H]3CC[C@@H]2c2ccnc(F)c2C3)cc1` [Compound 187, (5R,8S)-1-Fluoro-N-(4-(4-methyloxazol-5-yl)phenyl)-6,7,8,9-tetrahydro-5H-5,8-epiminocyclohepta[c]pyridine-10-carboxamide] yielded an IC50 of 500 to 5000 nM.
`O=C(Nc1cc(Cl)c(Cl)cc1F)N1[C@H]2CC[C@@H]1c1c(F)cncc1C2` [Compound 190, (5R,8S)-N-(4,5-Dichloro-2-fluorophenyl)-4-fluoro-6,7,8,9-tetrahydro-5H-5,8-epiminocyclohepta[c]pyridine-10-carboxamide] was tested, and the IC50 was under 500 nM.
`O=C(Nc1ccc(-c2ccccc2)cc1)N1[C@H]2CC[C@@H]1c1c[nH]c(=O)cc1C2` [Compound 191, (6S,9R)-N-([1,1′-Biphenyl]-4-yl)-3-oxo-3,5,6,7,8,9-hexahydro-2H-6,9-epiminocyclohepta[c]pyridine-10-carboxamide] gave an IC50 of under 500 nM.
For `O=C(Nc1ccc(-c2ccccc2)cc1)N1[C@H]2CC[C@@H]1c1ccnc(F)c1C2` [Compound 192, (5R,8S)-N-([1,1′-Biphenyl]-4-yl)-1-fluoro-6,7,8,9-tetrahydro-5H-5,8-epiminocyclohepta[c]pyridine-10-carboxamide], the IC50 was under 500 nM.
`O=C(Nc1cc(Cl)c(C(F)(F)F)cc1F)N1[C@H]2CC[C@@H]1c1ccc(F)nc1C2` [Compound 196, (5R,8S)-N-(5-Chloro-2-fluoro-4-(trifluoromethyl)phenyl)-2-fluoro-6,7,8,9-tetrahydro-5H-5,8-epiminocyclohepta[b]pyridine-10-carboxamide] gave an IC50 of under 500 nM.
With `O=C(Nc1cc(Cl)c(C(F)(F)F)cc1F)N1[C@@H]2CC[C@H]1c1ccc(F)nc1C2` [Compound 197, (5S,8R)-N-(5-Chloro-2-fluoro-4-(trifluoromethyl)phenyl)-2-fluoro-6,7,8,9-tetrahydro-5H-5,8-epiminocyclohepta[b]pyridine-10-carboxamide] the IC50 was 500 to 5000 nM.
Work on `O=C(Nc1ccc(Cl)c(Cl)c1)N1[C@@H]2CC[C@H]1c1cnc(F)cc1C2` [Compound 198, (6R,9S)-N-(3,4-dichlorophenyl)-3-fluoro-6,7,8,9-tetrahydro-5H-6,9-epiminocyclohepta[c]pyridine-10-carboxamide] yielded an IC50 of 500 to 5000 nM.
For `N#Cc1cc(NC(=O)N2[C@H]3CC[C@@H]2c2ccnc(F)c2C3)ccc1Cl` [Compound 199, (5R,8S)-N-(4-Chloro-3-cyanophenyl)-1-fluoro-6,7,8,9-tetrahydro-5H-5,8-epiminocyclohepta[c]pyridine-10-carboxamide], the IC50 was under 500 nM.

Same assay, conditions: 1321N1-hrGPR65 cells, assay pH 7.2, cAMP HTRF; read-out: hGPR65 IC50 (activity class)
Compound `Cn1cc2c(cc1=O)C[C@@H]1CC[C@H]2N1C(=O)Nc1ccc(Cl)c(Cl)c1` [Compound 150, (6S,9R)—N-(3,4-Dichlorophenyl)-2-methyl-3-oxo-3,5,6,7,8,9-hexahydro-2H-6,9-epiminocyclohepta[c]pyridine-10-carboxamide] has an IC50 of 500 to 5000 nM.
With `O=C(Nc1ccc(-n2cccn2)cc1)N1[C@H]2CC[C@@H]1c1ccnc(F)c1C2` [Compound 183, (5R,8S)-N-(4-(1H-Pyrazol-1-yl)phenyl)-1-fluoro-6,7,8,9-tetrahydro-5H-5,8-epiminocyclohepta[c]pyridine-10-carboxamide] the IC50 was 500 to 5000 nM.
`O=C(Nc1ccc(-c2cscn2)cc1)N1[C@H]2CC[C@@H]1c1ccnc(F)c1C2` [Compound 186, (5R,8S)-1-Fluoro-N-(4-(thiazol-4-yl)phenyl)-6,7,8,9-tetrahydro-5H-5,8-epiminocyclohepta[c]pyridine-10-carboxamide] gave an IC50 of 500 to 5000 nM.
In the case of `O=C(Nc1ccc(-c2cnco2)cc1)N1[C@H]2CC[C@@H]1c1ccnc(F)c1C2` [Compound 188, (5R,8S)-1-Fluoro-N-(4-(oxazol-5-yl)phenyl)-6,7,8,9-tetrahydro-5H-5,8-epiminocyclohepta[c]pyridine-10-carboxamide], the IC50 is reported as 500 to 5000 nM.
In the case of `O=C(Nc1cc(Cl)c(Cl)cc1F)N1[C@H]2CC[C@@H]1c1ccnc(C(F)(F)F)c1C2` [Compound 200, (5R,8S)-N-(4,5-dichloro-2-fluorophenyl)-1-(trifluoromethyl)-6,7,8,9-tetrahydro-5H-5,8-epiminocyclohepta[c]pyridine-10-carboxamide], the IC50 is reported as 500 to 5000 nM.
